Data: patent publication US8815875B2 (Merck Sharp & Dohme Corp., priority 2008, dated 2014)

Target: FABP4 (Homo sapiens, UniProt P15090)
Experiment: TdF (Temperature Dependence Fluorescence) assay, thermal shift, FABP4
Format: binding
Method in brief: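 Binding measured as ΔTm versus protein alone; binding constants derived by nonlinear fitting with ΔHL set to −7 kcal/mol and ΔCpL to zero.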

FABP4, sequence (P15090 whole entry, species assumed): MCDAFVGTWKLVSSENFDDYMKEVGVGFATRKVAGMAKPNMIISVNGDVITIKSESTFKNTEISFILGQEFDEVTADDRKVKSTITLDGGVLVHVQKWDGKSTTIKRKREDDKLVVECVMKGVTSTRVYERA

Row | Structure (SMILES) | FABP4 TdF Kd | Kd [nM]
1 | CCCCC1(C)CN(Cc2cc(=O)n3nc(-c4ccccc4)nc3[nH]2)c2cccc(Cl)c21 (stereo not shown) [41-3] | B (0.5 ≦ B < 0.001 μM) | 
2 | Cc1c(Cl)cccc1SCc1cc(=O)n2nc(-c3ccccc3)nc2[nH]1 [16-2] | B (0.5 ≦ B < 0.001 μM) | 
3 | O=c1cc(COc2cccc(Cl)c2)[nH]c2nc(-c3ccccc3)nn12 [1-88] | B (0.5 ≦ B < 0.001 μM) | 
4 | Cn1cc2cccc(NCc3cc(=O)n4nc(-c5ccccc5)nc4[nH]3)c2n1 [1-105] |  | > 500
5 | N#Cc1cccc(OCc2cc(=O)n3nc(-c4ccccc4)nc3[nH]2)c1C1CC1 [46-2] | B (0.5 ≦ B < 0.001 μM) | 
6 | CC1(NC(=O)c2ccccc2OCc2[nH]c3nc(-c4ccccc4)nn3c(=O)c2Cl)COC1 [24-11] |  | > 500
7 | O=C(NCCc1cccc(Cl)c1)C1(OCc2cc(=O)n3nc(-c4ccccc4)nc3[nH]2)CCCCC1 [48-45] | B (0.5 ≦ B < 0.001 μM) | 
8 | CCc1c(Cl)cccc1OCc1cc(=O)n2nc(-c3ccccc3)nc2[nH]1 [21-3] | B (0.5 ≦ B < 0.001 μM) | 
9 | O=c1cc(Cn2ncc3ccccc32)[nH]c2nc(-c3ccccc3)nn12 [1-12] |  | > 500
10 | CN(CCC1CC1)C(=O)C1(OCc2cc(=O)n3nc(-c4ccccc4)nc3[nH]2)CCCCC1 [48-77] | B (0.5 ≦ B < 0.001 μM) | 
11 | CC1(C(=O)Nc2c(Cl)cccc2OCc2cc(=O)n3nc(-c4ccccc4)nc3[nH]2)CC1 [49-5] | B (0.5 ≦ B < 0.001 μM) | 
12 | CC(C)(C)OC(=O)N1CCC(OCc2cc(=O)n3nc(-c4ccccc4)nc3[nH]2)(C(=O)NCC2CC2)CC1 [48-21] |  | > 500
13 | Cc1c(Cl)cccc1OCc1cc(=O)n2nc(-c3ccccn3)nc2[nH]1 [25-3] | B (0.5 ≦ B < 0.001 μM) | 
14 | CN(Cc1cc(=O)n2nc(-c3ccccc3)nc2[nH]1)c1cccc(Br)c1 [1-16] | B (0.5 ≦ B < 0.001 μM) | 
15 | O=c1c(Cl)c(COc2cccc(Cl)c2C2CCC2)[nH]c2nc(-c3ccccc3)nn12 [26-4] | B (0.5 ≦ B < 0.001 μM) | 
16 | COC[C@@H]1CCCN1C(=O)C1(OCc2cc(=O)n3nc(-c4ccccc4)nc3[nH]2)CCCCC1 [48-5, (S)-5-((1-(2-(methoxymethyl)pyrrolidine-1-carbonyl)cyclohexyloxy)methyl)-2-phenyl-[1,2,4]triazolo[1,5-a]pyrimidin-7(4H)-one] |  | > 500
17 | O=C(NCC1(CO)CCC1)c1ccccc1OCc1[nH]c2nc(-c3ccccc3)nn2c(=O)c1Cl [24-10] |  | > 500
18 | O=C(NCC1(O)CCCC1)C1(OCc2cc(=O)n3nc(-c4ccccc4)nc3[nH]2)CCCCC1 [48-60] | B (0.5 ≦ B < 0.001 μM) | 
19 | Cc1ccc(Br)c2ccn(Cc3cc(=O)n4nc(-c5ccccc5)nc4[nH]3)c12 [1-38] |  | > 500
20 | CC1(OCc2cc(=O)n3nc(-c4ccccc4)nc3[nH]2)CCCCC1 [1-150] | B (0.5 ≦ B < 0.001 μM) | 
21 | CC(C)(C)c1ccc(OCc2cc(=O)n3nc(-c4ccccc4)nc3[nH]2)c(Cl)c1 [1-71] |  | > 500
22 | O=c1cc(CN2CCCC2Cc2ccc(F)cc2)[nH]c2nc(-c3ccccc3)nn12 (stereo not shown) [1-56] |  | > 500

Row | Structure (SMILES) | FABP4 TdF Kd | Kd [nM]
23 | O=C(N1CCC[C@@H]1CO)C1(OCc2cc(=O)n3nc(-c4ccccc4)nc3[nH]2)CCCCC1 [48-66] |  | > 500
24 | Nc1cc(C2CC2)nn1C(=O)c1c(Cl)cccc1OCc1cc(=O)n2nc(-c3ccccc3)nc2[nH]1 [47-50] |  | ≤ 1
25 | O=c1c(Cl)c(CN2CCOc3c(Br)cccc32)[nH]c2nc(-c3ccccc3)nn12 [24-4] | B (0.5 ≦ B < 0.001 μM) | 
26 | O=c1cc(CN2Cc3ccccc3C2)[nH]c2nc(-c3ccccc3)nn12 [1-14] |  | > 500
27 | CN(C(=O)c1ccccc1OCc1cc(=O)n2nc(-c3ccccc3)nc2[nH]1)C1CCCCC1 [47-62] | B (0.5 ≦ B < 0.001 μM) | 
28 | Cc1c(Cl)cccc1OCc1cc(=O)n2nc(-c3cncnc3)nc2[nH]1 [25-6] |  | > 500
29 | O=C(N1CCc2ccc(Cl)cc21)C1(OCc2cc(=O)n3nc(-c4ccccc4)nc3[nH]2)CCCCC1 [48-64] | B (0.5 ≦ B < 0.001 μM) | 
30 | Cc1c(Cl)cccc1OCc1cc(=O)n2nc(-c3ccccc3Cl)nc2[nH]1 [25-7] |  | > 500
31 | Cc1c(Cl)cccc1OC(C)c1cc(=O)n2nc(-c3ccccc3)nc2[nH]1 (single isomer, unassigned) [37-6] | B (0.5 ≦ B < 0.001 μM) | 
32 | O=C(NCC1(c2ccc(Cl)cc2)CCC1)C1(OCc2cc(=O)n3nc(-c4ccccc4)nc3[nH]2)CCCCC1 [48-65] |  | ≤ 1
33 | O=c1cc(COc2ccc(Cl)c(F)c2)[nH]c2nc(-c3ccccc3)nn12 [1-94] | B (0.5 ≦ B < 0.001 μM) | 
34 | Cn1ccc(NC(=O)C2(OCc3cc(=O)n4nc(-c5ccccc5)nc4[nH]3)CCCCC2)n1 [48-33] | B (0.5 ≦ B < 0.001 μM) | 
35 | O=c1cc(CN2CCCC2Cc2cccnc2)[nH]c2nc(-c3ccccc3)nn12 (stereo not shown) [1-112] |  | > 500
36 | Cn1ncc2cccc(NCc3cc(=O)n4nc(-c5ccccc5)nc4[nH]3)c21 [1-106] |  | > 500
37 | O=C(NC1(CO)CCCCC1)c1c(Cl)cccc1OCc1cc(=O)n2nc(-c3ccccc3)nc2[nH]1 [47-14] | B (0.5 ≦ B < 0.001 μM) | 
38 | O=C(NCC1(c2ccccc2Cl)CC1)c1ccccc1OCc1[nH]c2nc(-c3ccccc3)nn2c(=O)c1Cl [24-8] | B (0.5 ≦ B < 0.001 μM) | 
39 | COC(=O)C1(NCc2cc(=O)n3nc(-c4ccccc4)nc3[nH]2)CCc2ccc(Br)cc2C1 (stereo not shown) [1-155] |  | > 500
40 | O=C(NCC1CCC1)c1c(Cl)cccc1OCc1cc(=O)n2nc(-c3ccccc3)nc2[nH]1 [47-5, 2-chloro-N-(cyclobutylmethyl)-6-((7-oxo-2-phenyl-4,7-dihydro-[1,2,4]triazolo[1,5-a]pyrimidin-5-yl)methoxy)benzamide] | B (0.5 ≦ B < 0.001 μM) | 
41 | Cc1c(Cl)cccc1OC(C)c1cc(=O)n2nc(-c3ccccc3)nc2[nH]1 (stereo not shown) [37-5] | B (0.5 ≦ B < 0.001 μM) | 
42 | Cc1c(Cl)cccc1NCc1cc(=O)n2nc(-c3ccccc3)cc2[nH]1 [10-2] |  | > 500
43 | CN(Cc1cc(=O)n2nc(-c3ccccc3)nc2[nH]1)C1Cc2ccccc2C1 [1-54] |  | > 500
44 | Cc1c(Cl)cccc1N(Cc1cc(=O)n2nc(-c3ccccc3)nc2[nH]1)C1CC1 [17-2] |  | > 500

Row | Structure (SMILES) | FABP4 TdF Kd | Kd [nM]
45 | COc1ccccc1C1(CNC(=O)c2ccccc2OCc2[nH]c3nc(-c4ccccc4)nn3c(=O)c2Cl)CC1 [24-18] |  | ≤ 1
46 | O=c1cc(CNC2CCc3c(Cl)cccc32)[nH]c2nc(-c3ccccc3)nn12 (stereo not shown) [1-52] | B (0.5 ≦ B < 0.001 μM) | 
47 | O=c1cc(CN2CCc3ccc(Cl)cc32)[nH]c2nc(-c3ccccc3)nn12 [1-83] | B (0.5 ≦ B < 0.001 μM) | 
48 | O=C(NCC1(CO)CCCC1)c1ccccc1OCc1cc(=O)n2nc(-c3ccccc3)nc2[nH]1 [47-59] | B (0.5 ≦ B < 0.001 μM) | 
49 | CCc1ccc(OCc2cc(=O)n3nc(C)nc3[nH]2)cc1 [8-3] |  | > 500
50 | O=C(NC1(CO)CCCCC1)C1(OCc2cc(=O)n3nc(-c4ccccc4)nc3[nH]2)CCCCC1 [48-67] | B (0.5 ≦ B < 0.001 μM) | 
51 | O=C(O)C1(NC(=O)C2(OCc3cc(=O)n4nc(-c5ccccc5)nc4[nH]3)CCCCC2)CCCCC1 [48-44] | B (0.5 ≦ B < 0.001 μM) | 
52 | COCc1c(Cl)cccc1OCc1cc(=O)n2nc(-c3ccccc3)nc2[nH]1 [22-2] | B (0.5 ≦ B < 0.001 μM) | 
53 | Cc1csc(-c2ccc(OCc3cc(=O)n4nc(-c5ccccc5)nc4[nH]3)cc2)n1 [1-44] |  | > 500
54 | O=c1cc(CN2CCc3ccc(Br)cc32)[nH]c2nc(-c3ccccc3)nn12 [1-82] | B (0.5 ≦ B < 0.001 μM) | 
55 | COc1cccc(C2(CNC(=O)c3c(Cl)cccc3OCc3cc(=O)n4nc(-c5ccccc5)nc4[nH]3)CCC2)c1 [47-38, 2-chloro-N-((1-(3-methoxyphenyl)cyclobutyl)methyl)-6-((7-oxo-2-phenyl-4,7-dihydro-[1,2,4]triazolo[1,5-a]pyrimidin-5-yl)methoxy)benzamide] |  | ≤ 1
56 | O=C(NC1(CO)CCCC1)c1c(Cl)cccc1OCc1cc(=O)n2nc(-c3ccccc3)nc2[nH]1 [47-17, 2-chloro-N-(1-(hydroxymethyl)cyclopentyl)-6-((7-oxo-2-phenyl-4,7-dihydro-[1,2,4]triazolo[1,5-a]pyrimidin-5-yl)methoxy)benzamide] | B (0.5 ≦ B < 0.001 μM) | 
57 | CCc1ccc(OCc2cc(=O)n3nc(Cc4ccccc4)nc3[nH]2)cc1 [8-11] |  | > 500
58 | Cc1cc(NC(=O)c2c(Cl)cccc2OCc2cc(=O)n3nc(-c4ccccc4)nc3[nH]2)n(C)n1 [47-7, 2-chloro-N-(1,3-dimethyl-1H-pyrazol-5-yl)-6-((7-oxo-2-phenyl-4,7-dihydro-[1,2,4]triazolo[1,5-a]pyrimidin-5-yl)methoxy)benzamide] | B (0.5 ≦ B < 0.001 μM) | 
59 | CC1(C)CCCC(OCc2[nH]c3nc(-c4ccccc4)nn3c(=O)c2Cl)C1 (stereo not shown) [24-2] | B (0.5 ≦ B < 0.001 μM) | 
60 | COCC1(CNC(=O)C2(OCc3cc(=O)n4nc(-c5ccccc5)nc4[nH]3)CCCCC2)CC1 [48-55] | B (0.5 ≦ B < 0.001 μM) | 
61 | O=c1cc(COc2ccccc2C(F)(F)F)[nH]c2nc(-c3ccccc3)nn12 [1-62] | B (0.5 ≦ B < 0.001 μM) | 
62 | O=C(NCC1(c2ccccc2Cl)CCC1)C1(OCc2cc(=O)n3nc(-c4ccccc4)nc3[nH]2)CCCCC1 [48-34] | B (0.5 ≦ B < 0.001 μM) | 
63 | O=c1ccccn1Cc1cc(=O)n2nc(-c3ccccc3)nc2[nH]1 [1-48] |  | > 500
64 | O=c1cc(COC2CCCCC2O)[nH]c2nc(-c3ccccc3)nn12 (stereo not shown) [1-135] |  | > 500
